# Measurements published in patent publication US9796700B2 (Celgene CAR LLC, priority 2013, dated 2017).
# pIC50: −log10 of the molar value. Like-named read-outs stand apart in the source and are kept apart here.
# Columns and labels:
# Erk1 = Erk1 (Homo sapiens (Human), UniProt P27361); assay: Protein Mass Modification Assay (intact protein MALDI); assay type: binding
# In short: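 Human Erk1 was incubated 60 min at room temperature with a 10-fold molar excess of compound, then analysed as intact protein by MALDI with sinapinic acid matrix. The centroid mass shift versus untreated protein was divided by compound molecular weight to give percent modified protein.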
# MEK1 activated ERK1 = MEK1 activated ERK1 (Homo sapiens (Human), UniProt P27361); assay: Omnia continuous-read kinase assay for potency against MEK1 activated ERK1; assay type: biochemical
# In short: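 Apparent IC50 came from initial reaction slopes (RFU vs time) plotted against log inhibitor with a variable-slope fit. Reactions were started with ERK1 (4 nM final) added to 50 μM ATP, roughly at its appKM, and 10 μM Sox-conjugated ST17 peptide in 20 mM Tris pH 7.5, 5 mM MgCl2. Fluorescence was monitored every 71 seconds.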
# [1] = MEK1 activated ERK1, WT, ATP at KM
# [2] = read-out: ERK1 Omnia WT ATP KM IC50
# Chain of MEK1 activated ERK1 (P27361 whole entry): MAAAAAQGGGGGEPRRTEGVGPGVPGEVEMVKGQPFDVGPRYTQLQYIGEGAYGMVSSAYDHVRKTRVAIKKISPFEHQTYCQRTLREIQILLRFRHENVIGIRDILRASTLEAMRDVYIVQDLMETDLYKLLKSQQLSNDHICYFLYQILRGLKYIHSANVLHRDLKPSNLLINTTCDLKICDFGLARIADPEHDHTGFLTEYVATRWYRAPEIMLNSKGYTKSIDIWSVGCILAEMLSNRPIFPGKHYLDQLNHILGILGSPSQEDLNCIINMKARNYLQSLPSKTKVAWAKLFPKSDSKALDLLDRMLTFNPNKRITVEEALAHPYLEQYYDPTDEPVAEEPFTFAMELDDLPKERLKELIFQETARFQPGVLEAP
# Chain of Erk1 (P27361 whole entry, looked up): as the sequence (P27361 whole entry) above
Compound,ERK1 Mass Mod (%) (Erk1),pIC50 (MEK1 activated ERK1; [1]),pIC50 (MEK1 activated ERK1; [2])
"Cc1ccc(C(N)=O)cc1Nc1ncc(Cl)c(Nc2ccccc2NC(=O)/C=C/CN(C)C)n1 [Compound I-218, (E)-3-((5-chloro-4-((2-(4-(dimethylamino)but-2-enamido)phenyl)amino)pyrimidin-2-yl)amino)-4-methylbenzamide]",G (proived a mass modification ≦30%),< 6.00,–
"C/C=C/C(=O)Nc1ccccc1Nc1nc(Nc2cc(C(N)=O)ccc2C)ncc1Cl [Compound I-219, (E)-3-((4-((2-(but-2-enamido)phenyl)amino)-5-chloropyrimidin-2-yl)amino)-4-methylbenzamide]",G (proived a mass modification ≦30%),< 6.00,–
"C=CC(=O)Nc1cc(F)ccc1Nc1nc(Nc2ccc(F)cc2C#N)ncc1Cl [Compound I-221, N-(2-((5-chloro-2-((2-cyano-4-fluorophenyl)amino)pyrimidin-4-yl)amino)-5-fluorophenyl)acrylamide]",E (provided a mass modification of ≧70%),> 7.00,–
"CC(C)=CC(=O)c1ccccc1Oc1nc(Nc2ccc(F)cc2C)ncc1Cl [Compound I-222, 1-(2-((5-chloro-2-((4-fluoro-2-methylphenyl)amino)pyrimidin-4-yl)oxy)phenyl)-3-methylbut-2-en-1-one]",G (proived a mass modification ≦30%),< 6.00,–
"CC(C)=CC(=O)c1ccccc1Oc1nc(Nc2cc(C(N)=O)ccc2C)ncc1Cl [Compound I-223, 3-((5-chloro-4-(2-(3-methylbut-2-enoyl)phenoxy)pyrimidin-2-yl)amino)-4-methylbenzamide]",E (provided a mass modification of ≧70%),< 6.00,–
"C#CCOc1cc(C)c(Nc2ncc(Cl)c(Nc3ccccc3NC(=O)C=C)n2)cc1C(N)=O [Compound I-228, 5-((4-((2-acrylamidophenyl)amino)-5-chloropyrimidin-2-yl)amino)-4-methyl-2-(prop-2-yn-1-yloxy)benzamide]",G (proived a mass modification ≦30%),> 7.00,–
"C=CC(=O)Nc1cc(OC)ccc1Nc1nc(Nc2cc(C(N)=O)ccc2C)ncc1Cl [Compound I-237, 3-((4-((2-acrylamido-4-methoxyphenyl)amino)-5-chloropyrimidin-2-yl)amino)-4-methylbenzamide]",E (provided a mass modification of ≧70%),> 7.00,–
"C=C(C)S(=O)(=O)Nc1cc(F)ccc1Nc1nc(Nc2cc(C(C)=O)ccc2C)ncc1Cl [Compound I-243, N-(2-((2-((5-acetyl-2-methylphenyl)amino)-5-chloropyrimidin-4-yl)amino)-5-fluorophenyl)prop-1-ene-2-sulfonamide]",G (key: E: provided a mass modification of ≧70%; F: provided a mass modification of 31-69%; G: proived a mass modification ≦30%),–,> 7.00
"C=CC(=O)Nc1cc(C)ccc1Nc1nc(Nc2cc(Cl)nc(OC)c2)ncc1Cl [Compound I-244, N-(2-((5-chloro-2-((2-chloro-6-methoxypyridin-4-yl)amino)pyrimidin-4-yl)amino)-5-methylphenyl)acrylamide]",E (provided a mass modification of ≧70%),< 6.00,–
"C=CC(=O)Nc1cc(Cl)ccc1Nc1nc(Nc2cc(Cl)nc(OC)c2)ncc1Cl [Compound I-247, N-(5-chloro-2-((5-chloro-2-((2-chloro-6-methoxypyridin-4-yl)amino)pyrimidin-4-yl)amino)phenyl)acrylamide]",F (provided a mass modification of 31-69%),< 6.00,–
"C=CC(=O)Nc1ccccc1Oc1nc(Nc2ccc(N3CCN(C(C)=O)CC3)cc2OC)ncc1C(N)=O [Compound I-258, 2-((4-(4-acetylpiperazin-1-yl)-2-methoxyphenyl)amino)-4-(2-acrylamidophenoxy)pyrimidine-5-carboxamide]",E (provided a mass modification of ≧70%),> 7.00,–
"C=CC(=O)Nc1ccccc1Oc1nc(Nc2ccc(N3CCN(C(C)=O)CC3)cc2OC)ncc1Cl [Compound I-259, N-(2-((2-((4-(4-acetylpiperazin-1-yl)-2-methoxyphenyl)amino)-5-chloropyrimidin-4-yl)oxy)phenyl)acrylamide]",F (provided a mass modification of 31-69%),< 6.00,–
"C=CC(=O)Nc1ccccc1Oc1nc(Nc2ccc(N3CCN(C(C)=O)CC3)cc2OC)ncc1F [Compound I-260, N-(2-((2-((4-(4-acetylpiperazin-1-yl)-2-methoxyphenyl)amino)-5-fluoropyrimidin-4-yl)oxy)phenyl)acrylamide]",G (proived a mass modification ≦30%),< 6.00,–
"C=CC(=O)Nc1ccccc1Oc1ccnc(Nc2ccc(N3CCN(C(C)=O)CC3)cc2OC)n1 [Compound I-261, N-(2-((2-((4-(4-acetylpiperazin-1-yl)-2-methoxyphenyl)amino)pyrimidin-4-yl)oxy)phenyl)acrylamide]",G (proived a mass modification ≦30%),< 6.00,–
"C=CC(=O)Nc1cc(OC)ccc1Oc1nc(Nc2ccc(N3CCC[C@@H]3C(N)=O)cc2OC)ncc1C(N)=O [Compound I-262, (R)-4-(2-acrylamido-4-methoxyphenoxy)-2-((4-(2-carbamoylpyrrolidin-1-yl)-2-methoxyphenyl)amino)pyrimidine-5-carboxamide]",F (provided a mass modification of 31-69%),< 6.00,–
"C=CC(=O)Nc1cc(OC)ccc1Oc1nc(Nc2ccc(N3CCC[C@@H]3CO)cc2OC)ncc1C(N)=O [Compound I-264, (R)-4-(2-acrylamido-4-methoxyphenoxy)-2-((4-(2-(hydroxymethyl)pyrrolidin-1-yl)-2-methoxyphenyl)amino)pyrimidine-5-carboxamide]",F (key: E: provided a mass modification of ≧70%; F: provided a mass modification of 31-69%; G: proived a mass modification ≦30%),–,6.00 to 6.30
"C=CC(=O)Nc1cc(OC)ccc1Oc1nc(Nc2ccc(N3CCC[C@H]3C(N)=O)cc2OC)ncc1C(N)=O [Compound I-265, (S)-4-(2-acrylamido-4-methoxyphenoxy)-2-((4-(2-carbamoylpyrrolidin-1-yl)-2-methoxyphenyl)amino)pyrimidine-5-carboxamide]",F (provided a mass modification of 31-69%),< 6.00,–
"CC(C)=CC(=O)c1ccccc1Oc1nc(Nc2cc(C(N)=O)ccc2C)ncc1C(N)=O [Compound I-271, 2-((5-carbamoyl-2-methylphenyl)amino)-4-(2-(3-methylbut-2-enoyl)phenoxy)pyrimidine-5-carboxamide]",G (proived a mass modification ≦30%),< 6.00,–
"CN(C)CCC(=O)Nc1ccccc1Nc1nc(N[C@H]2CCCN(C(=O)CO)C2)ncc1C(F)(F)F [Compound I-276, (S)-3-(dimethylamino)-N-(2-((2-((1-(2-hydroxyacetyl)piperidin-3-yl)amino)-5-(trifluoromethyl)pyrimidin-4-yl)amino)phenyl)propanamide]",G (proived a mass modification ≦30%),< 6.00,–
"C=CC(=O)Nc1cc(C)ccc1Nc1nc(N[C@H]2CCCN(S(=O)(=O)C=C)C2)ncc1C(F)(F)F [Compound I-277, (S)—N-(5-Methyl-2-((5-(trifluoromethyl)-2-((1-(vinylsulfonyl)piperidin-3-yl)amino)pyrimidin-4-yl)amino)phenyl)acrylamide]",E (provided a mass modification of ≧70%),< 6.00,–
"C=CC(=O)Nc1cc(C)ccc1Nc1nc(N[C@@H]2CCCN(S(=O)(=O)C=C)C2)ncc1C(F)(F)F [Compound I-278, (R)—N-(5-Methyl-2-((5-(trifluoromethyl)-2-((1-(vinylsulfonyl)piperidin-3-yl)amino)pyrimidin-4-yl)amino)phenyl)acrylamide]",F (provided a mass modification of 31-69%),< 6.00,–
"C=CC(=O)Nc1cc(C)ccc1Nc1nc(N[C@@H]2CCN(S(=O)(=O)C=C)C2)ncc1C(F)(F)F [Compound I-280, (R)—N-(5-Methyl-2-((5-(trifluoromethyl)-2-((1-(vinylsulfonyl)pyrrolidin-3-yl)amino)pyrimidin-4-yl)amino)phenyl)acrylamide]",E (provided a mass modification of ≧70%),< 6.00,–
"C=CC(=O)Nc1ccccc1Nc1nc(Nc2cc(OC)nc(N3CCCC3)c2)ncc1C(F)(F)F [Compound I-281, N-(2-((2-((2-Methoxy-6-(pyrrolidin-1-yl)pyridin-4-yl)amino)-5-(trifluoromethyl)pyrimidin-4-yl)amino)phenyl)acrylamide]",E (provided a mass modification of ≧70%),> 7.00,–
"C=CC(=O)Nc1ccccc1Nc1nc(Nc2cc(OC)nc(OCCOC)c2)ncc1C(F)(F)F [Compound I-283, N-(2-((2-((2-Methoxy-6-(2-methoxyethoxy)pyridin-4-yl)amino)-5-(trifluoromethyl)pyrimidin-4-yl)amino)phenyl)acrylamide]",E (provided a mass modification of ≧70%),> 7.00,–
"C=CC(=O)Nc1cc(OC)ccc1Nc1nc(Nc2cc(OC)ncc2C)ncc1C(F)(F)F [Compound I-284, N-(5-Methoxy-2-((2-((2-methoxy-5-methylpyridin-4-yl)amino)-5-(trifluoromethyl)pyrimidin-4-yl)amino)phenyl)acrylamide]",E (provided a mass modification of ≧70%),> 7.00,–
"C=CC(=O)Nc1ccccc1Nc1nc(Nc2cc(NCCOC)nc(OC)c2)ncc1C(F)(F)F [Compound I-286, N-(2-((2-((2-Methoxy-6-((2-methoxyethyl)amino)pyridin-4-yl)amino)-5-(trifluoromethyl)pyrimidin-4-yl)amino)phenyl)acrylamide]",E (provided a mass modification of ≧70%),> 7.00,–
